Experiments:
[1] = tested on: human lens epithelial cells (LECs); experiment: Confluent LEC monolayers exposed to solutions; MTT cell viability and microscopy; type: cell-based
Protocol: (§1) As described below, the confluent monolayers of LECs, CEDCs, and RPECs grown in 96-well flat-bottom plates are exposed to varying concentrations of NaCl (an osmolyte) solution. Two hundred μl of NaCl solution (prepared as described below) are added to each well at concentrations of 137 mM, 170 mM, 340 mM, 680 mM, 1360 mM and 2000 mM NaCl, respectively. The solutions have a pH of 8.0±0.4. The concentrations of NaCl correspond to final osmolarities of about 285 to 4000 mOsm/L, respectively.
(§2) The primary and first passages of human lens epithelial cells, human corneal endothelial cells, and human retinal-pigmented epithelial cells are cultured. The LECs, the CEDCs, and the RPECs are isolated from post-mortem eyes by using standard techniques of cell isolation and enzyme digestion. See Uebersax E D, Grindstaff R D and Defoe D M Exp Eye Res. 2000 March; 70(3): 381-90; Wagner L M, Saleh S M, Boyle D J, and Takemoto D J. Mol Vis. 2002 Mar. 14; 8: 59-66; Cammarata P R, Schafer G, Chen S W, Guo Z, and Reeves R E. Invest Ophthalmol Vis Sci. 2002 February; 43(2): 425-33; Rakic J M, Galand A, and Vrensen G F. Exp Eye Res. 2000 November; 71(5): 489-94. LECs and CEDCs are cultured in Eagle's minimum essential medium (MEM). RPECs are cultured in Ham's F10 medium, supplemented with 2 mM glutamine, 25 mmol/L Hepes, pH 7.4, 10 U/mL penicillin, and 10 μg/mL streptomycin and 15% heat-inactivated foetal cow serum (FCS). The primary cultured LECs, CEDCs, and RPECs are sub-cultured at 10^4 cells/wells in 96-well flat-bottom plates until they reached 90 to 100% confluence. These cells are grown to confluence in an incubator with a humidified atmosphere of 5% CO2 at 37° C. The cells are kept in a confluent state for overnight before assays.
(§3) After treatment, the treated cells are thoroughly washed, and cultured with fresh media for twelve hours before cell viability is assessed. The capability of these cells to survive at the indicated hypertonic stress levels is assessed by an MTT assay 12-24 hours post-exposure.
(§4) MTT assay is an assay to assess mitochondria function, performed as described by Mosmann (Mosmann, T. J Immunol Methods. 1983 Dec. 16; 65(1-2): 55-63. The tetrazolium salt 3-(4,5-dimethylthiazol-2-yl)-2,5-diphenyl tetrazolium bromide (MTT; supplied by Sigma Chemical Co.) is dissolved in Phosphate's Balanced Salt (PBS) Solutions at 5 mg/ml and sterilized by passage through a 0.22 μm Millipore filter. MTT stock solution is added to growth media at a ratio of 1 to 10. Cells are incubated with this growth media for three to four hours. In cells that are alive at the time of adding MTT, mitochondrial dehydrogenase cleaves the tetrazolium ring into a dark blue formazan reaction product, which builds up in the cell. MTT-reacted cultures are observed under brightfield microscopy without further processing. Cells in each well are scored as MTT-positive if they are completely filled with reaction product (in the case of unattached cells) or contain many formazan crystals emanating from multiple foci (in the case of attached or spread cells). MTT-reacted cultures are then lysised by dimethyl sulfoxide (DMSO) and read in a Microplate Reader to obtain a measure of cell viability.
Confluent monolayers of LECs are given three washes with Hank's Balanced Salt Solutions (HBSS) to remove FCS before the experiment. LECs are prepared in 96-well culture plates as in Example 1. These cells are exposed for about five to ten minutes to 200 μl/well of treatment solutions comprising increasing concentrations (˜135 mM, ˜170 mM, ˜340 mM, ˜680 mM, ˜1360 mM and ˜2000 mM) of NaCl (an osmolyte) in the presence and the absence of 30 μM frusemide (a co-transport interference agent, an ion transport mechanism interference agent). The treatment solutions have a pH of 8.0±0.4. After treatment, the treated cells are thoroughly washed, and cultured with fresh media. The viability of the treated LECs was determined by MTT assay 12-24 hours post-treatment as described in Example 1. […]

[2] = tested on: human retinal-pigmented epithelial cells (RPECs); experiment: Confluent RPEC monolayers exposed to solutions; MTT cell viability; type: cell-based
Protocol: as §1, §2, §3, §4
Confluent monolayers of RPECs are prepared as described in Example 1. These cells are exposed for ten minutes to 200 μl/well of the solutions comprising increasing concentrations of NaCl (137 mM, 170 mM, 340 mM, 680 mM, 1360 mM and 2000 mM) at varying pH (8.4±0.5 and 10.6±0.5). The solutions of NaCl are prepared as described in Example 1. The pH of the solutions is adjusted with additions of 1 μl and 5 μl of 5N NaOH as described Example 3.
Confluent monolayers of LECs and RPECs are prepared as described in Example 1. […]
Confluent monolayers of LECs, CEDCs and RPECs are prepared as described in Example 1. […]
To assess whether there is any side effect of this treatment on other ocular cells, confluent monolayers of LECs, CEDCs and RPECs are prepared as described in Example 1. […]

[3] = tested on: human corneal endothelial cells (CEDCs); experiment: Confluent CEDC monolayers exposed to solutions; MTT cell viability; type: cell-based
Protocol: as §1
as §2, with “The primary cultured LECs, CEDCs, and RPECs are sub-cultured at 10^4 cells/wells in 96-well flat-bottom plates until they reached 90 to 100% confluence. These cells are grown to confluence in an incubator with a humidified atmosphere of 5% CO2 at 37° C. The cells are kept in a confluent state for overnight before assays.” left out
as §3
as §4, with “MTT-reacted cultures are observed under brightfield microscopy without further processing.” left out, “viability. […]” for “viability.”

[4] = tested on: human lens epithelial cells (LECs); experiment: Confluent LEC monolayers exposed to solutions; MTT cell viability and microscopy; type: cell-based; remark: listed apart in the source
primary cultured LECs = experiment: LECs on glass cover-slip, inverted phase-contrast microscopy; type: cell-based, human; conditions: ≦200 mM NaCl, 90 μM frusemide, 3 μl of 5N NaOH
Protocol: Confluent monolayers of LECs are prepared as described in Example 1 and grown on a glass cover-slip instead of 96-well flat bottom culture plates. The LECs are then thoroughly washed to remove serum.
Ten milliliters (10 mL) of the treatment solution containing ≦200 mM NaCl, 90 μM frusemide and 3 μl of 5N NaOH is prepared in a deep 35 mm petri-dish.
The cover-slips are then transferred to the petri-dish containing the treatment solution and are kept in the treatment solution for five to ten minutes. The treatment solution is then poured away, and the cover-slips along with detached LECs are thoroughly rinsed with a fresh HBSS solution with slight pressure using an aspiration/irrigation probe. After immediate examination and photography using inverted phase contrast microscope, the LECs are kept in culture for seven days with fresh medium to examine whether any residual cells would survive.

[5] = 137-2000 mM NaCl, within about five to ten minutes after addition
[6] = hypertonic stress of about 1380 mM NaCl, pH 8.0±0.4, MTT 12-24 hours post-exposure
[7] = ≧200 mM NaCl, 90 μM frusemide, 3 μl of 5N NaOH, about ten minutes

## [Cl-].[Na+] [NaCl, sodium chloride]
[1]; [5]
  LEC shrinkage and loss of adhesion: began to shrink, round up and lose adhesion from the monolayer in a dose-dependent manner
[1]; absence of frusemide
  survival capability of the LECs (hypertonic shock NaCl concentration): 200 mM
[2]; 137-2000 mM NaCl, pH raised from 8.4±0.5 to 10.6±0.5, ten minutes
  survival level of RPECs: dramatic decrease in the survival level
[2]; [5]
  shrinkage and loss of adhesion in RPECs: not seen as significantly
[2]; [6]
  RPECs survive (cell viability): more than eighty
[3]; [5]
  shrinkage and loss of adhesion in CEDCs: not seen as significantly
[3]; [6]
  CEDCs survive (cell viability): more than eighty
[4]; 170 and 340 mM NaCl, pH 8.0 to 10.6, ten minutes
  LECs sensitivity to hypertonic stress: increases with increasing pH and increasing NaCl concentrations
[4]; 170 or 340 mM NaCl, pH about 8.9±0.8
  LEC detachment and bursting: detach effectively from their substrates but do not burst significantly
[4]; 170 or 340 mM NaCl, pH about 10.6±0.5, within five minutes
  LECs burst and die: greater than seventy five
[4]; [6]
  LECs survive (cell viability): about forty
[4]; rapid hypertonic shock with 1380 mM NaCl, absence of frusemide, pH 8.0±0.4
  LECs survive: about 40%

## NS(=O)(=O)c1cc(C(=O)O)c(NCc2ccco2)cc1Cl [frusemide]
[1]; 10 μM frusemide, ≦200 mM NaCl, 3 μl of 5N NaOH, about ten minutes
  LECs shrink, are lost or die: more than 50%
[1]; 30 μM frusemide, rapid hypertonic shock with 340 mM NaCl, pH 8.0±0.4
  LECs survive: almost no cells survive
[1]; between 30 μM and 120 μM frusemide, ≦200 mM NaCl, 3 μl of 5N NaOH
  LECs removed or killed: > 90%
[1]; presence of 30 μM frusemide
  survival capability of the LECs (hypertonic shock NaCl concentration): 170 mM
[2]; between 30 μM and 90 μM frusemide, ≦200 mM NaCl, 3 μl of 5N NaOH
  RPECs removed or killed: few RPECs are removed or killed
[2]; [7]
  RPECs survived: eighty
[3]; [7]
  CEDCs survived: more than seventy
Primary cultured LECs
  LEC appearance at five minutes post-treatment: rounded up and separating from their substrate
  LEC appearance at ten minutes post-treatment and after washing: substantially clear substrate
[4]; [7]
  survival rate for LECs: less than ten

— patent publication US7875270B2, “Treatment solution and method for preventing posterior capsular opacification by selectively inducing detachment and/or death of lens epithelial cells” (Abbott Medical Optics Inc., priority 2002, dated 2011)
